One data set concerns HEK293 cells. The data set is described as follows: RealTime-Glo MT cell viability assay. Format: cell-based. The settings on record: concentrations of 1 µM and below, up to 72 h. How it is done: Cell viability studies. […].
Cell Viability Assay. RealTime-Glo™ MT Cell Viability Assay (Promega Corporation, Madison, WI, USA) was performed using THP1 cells and HEK293 cells as indicated in the manufacturer's manual to measure a compound's cytotoxicity on cells. In brief, in a white solid-bottom 96-well plate cells (5x10^3/well) were seeded and incubated with the respective compounds diluted in DMEM (Gibco, Carlsbad, CA, USA). After cell seeding viability reagent is added. Subsequently, cells were incubated with the compound and viability reagent containing medium at 37 °C, 5% CO2 for 72 h. The luminescence signal was determined after 1, 24, 48, and 72 hours on a GloMax®-Multi Detection System plate reader (Promega Corporation, Madison, Wl, USA).

In data set [1] the test system is platelets. The data set is described as follows: Light transmission platelet aggregation experiments. Type of data set: cell-based. The settings on record: preincubation with 100 µM ACKR3 agonist, activation with 2.5 µM ADP; compared to the control. How it is done: Platelet aggregation studies. To further evaluate the compounds inhibitory potential of platelet aggregation, aggregation experiments were conducted.
Aggregation experiments. For the light transmission aggregation experiments, citrate anticoagulated blood from healthy donors was used. To obtain platelet-rich plasma, whole blood was centrifuged at 210 × g for 20 min at room temperature. 1 × 10^8 platelets were preincubated with 100 µM ACKR3 agonist for 15 min at 37°C. Subsequently, platelets were activated with 2.5 µM ADP and aggregation was analyzed for 5 min at 1,000 rpm and 37°C using a light transmission aggregometer (Aggregometer 490-X; Chrono-Log Corp., Havertown, Pennsylvania, United States). Maximum platelet aggregation and the area under the curve were quantified using Aggrolink8 software (Chrono-Log Corp., Havertown, Pennsylvania, United States).

A further data set concerns the target T1, human ACKR3 (Homo sapiens, UniProt P25106).
T1 construct: expressed in transfected cells; host or cells: HEK293T
Briefly: ACKR3 β-Arrestin recruitment assay (NanoLuc complementation, NanoBiT) in HEK293T cells. The conditions noted are these: ACKR3; HEK293T cells; average value of three independent experiments. Format: cell-based. As to the method:
ACKR3 β-Arrestin Recruitment Assay. […] T.; Encell, L. P.; Wood, K. V. Nanoluc complementation reporter optimized for accurate measurement of protein interactions in cells. […] B.; Reynders, N.; Vanderplasschen, A.; Ollert, M.; Bouvier, M.; Szpakowska, M.; Chevigné, A. Proadrenomedullin n-terminal 20 peptides (pamps) are agonists of the chemokine scavenger receptor ACKR3/CXCR7. […] The prepared cells were then treated with compounds at concentrations ranging from 0.3 nM to 100 µM. Induction of β-Arrestin recruitment to receptors was evaluated by measuring bioluminescence with a Mithras LB940 luminometer (Berthold Technologies).
All curves were fitted to data points generated from the mean of at least three independent experiments. Results with values of p < 0.05 were considered statistically significant.

A short description of a further data set: Kinetic solubility assay. Format: physicochemical. The conditions noted are these: PBS buffer with 1% DMSO, 4 °C, aqueous buffer, kinetic from dmso stock, 1% DMSO, 99% PBS buffer (pH 7.4). How it is done: Solubility Assay. A 100 mL flask with phosphate-buffered saline was prepared from NaCl, KCI, Na2HPO4, KH2PO4, and distilled water. The buffer was adjusted to pH 7.4 with HCl. Afterwards, 10mM stock solutions of compounds in DMSO were prepared. 10 µL compound stock solution was added to 990 µL PBS in Eppendorf tubes. As a reference, 10 µL compound stock solution was added to 990 µL HPLC-grade MeOH in Eppendorf tubes. All tubes were centrifuged (16000 relative centrifugal force, 4 °C, 20 min). Subsequently, 600 µL supernatant was extracted carefully and filled into HPLC vials. […] Compounds solubility was calculated by AUC of compound in PBS divided by AUC of reference solution multiplied by concentration of the compound in solution.

Data set [2] can be described thus: Metabolic stability assay in mouse liver microsomes. Format: in vitro ADME. The conditions noted are these: after 60 min. As to the method: (§1) Metabolic Stability Assay. Pooled liver microsomes from mice (male) and humans (male) were purchased from Sekisui XenoTech, LLC, Kansas City, KS, USA. Metabolic stability assays were performed in the presence of an NADPH-regenerating system consisting of 5 mM glucose-6-phosphate, 5 U/mL glucose-6-phosphate dehydrogenase, and 1 mM NADP^+. Liver microsomes (20 mg/mL), NADPH-regenerating system, and 4 mM MgCl2·6 H2O in 0.1 M TRIS-HCl-buffer (pH 7.4) were preincubated for 5 min at 37 °C and 750 rpm on a shaker. The reaction was started by adding the preheated compound at 10 mM resulting in a final concentration of 0.1 mM. […] The samples were vortexed for 30 s and centrifuged (21910 relative centrifugal force, 4 °C, 20 min). The supernatant was used directly for LC-MS analysis.
(§2) All compound incubations were conducted at least in triplicates. Additionally, a negative control containing BSA (20 mg/mL) instead of liver microsomes and a positive control using Verapamil instead of the compound was performed. A limit of 1% organic solvent during incubation was not exceeded. […]

The nature of data set [3]: Metabolic stability assay in human liver microsomes. Format: in vitro ADME. As to the method: as §1, §2
Data set [4] has as its system platelets. Briefly: Flow cytometry assay of platelet degranulation (P-Selectin surface expression in PRP). The conditions noted are these: PRP pre-incubated with compound (100 µM), then CRP-XL (1 µg/mL); % ±SEM normalized to CRP-XL-treated vehicle PRP. Format: cell-based, human. As to the method: Platelet Degranulation Studies of Derivatives. Concurrent with the β-Arrestin recruitment potency optimization, the compounds were also tested and developed according to their functional activity. To determine the ability of a compound to modulate platelets, P-Selectin surface expression was measured. P-Selectin is a surface protein involved in cell adhesion mechanisms and can be found on activated platelets. After induction of platelet aggregation in platelet-rich plasma (PRP), treatment with the respective compound should therefore lead to a significant reduction in P-Selectin expression. […]. […]. Similarly, platelet degranulation potency was highly sensitive toward "linker"-changes (Structure C, Table 1). A distinct trend could not be registered. […]. Flow Cytometry Assay. The inhibition of platelet degranulation was determined via flow cytometry experiments. Platelets were treated with collagen-related peptide (CRP-XL, CambCol Laboratories, Cambridge, UK) and the platelets' activation state was determined (Geue, S.; Aurbach, K.; Manke, M.-C.; Manukjan, G.; Münzer, P.; Stegner, D.; Brähler, C.; Walker-Allgaier, B.; Märklin, M.; Borst, C. E.; Quintanilla-Fend, L.; Rath, D.; Geisler, T.; Salih, H. R.; Seizer, P.; Lang, F.; Nieswandt, B.; Gawaz, M.; Schulze, H.; Pleines, I.; Borst, O. Pivotal role of pdk1 in megakaryocyte cytoskeletal dynamics and polarization during platelet biogenesis. Blood 2019, 134, 1847-1858; and Malehmir, M.; Pfister, D.; Gallage, S.; Szydlowska, M.; Inverso, D.; Kotsiliti, E.; Leone, V.; Peiseler, M.; Surewaard, B. G. J.; Rath, D.; Ali, A.; Wolf, M. J.; Drescher, H.; Healy, M. E.; Dauch, D.; Kroy, D.; Krenkel, O.; Kohlhepp, M.; Engleitner, T.; Olkus, A.; Sijmonsma, T.; Volz, J.; Deppermann, C.; Stegner, D.; Helbling, P.; Nombela-Arrieta, C.; Rafiei, A.; Hinterleitner, M.; Rail, M.; Baku, F.; Borst, O.; Wilson, C. L.; Leslie, J.; O'Connor, T.; Wes-ton, C. J.; Chauhan, A.; Adams, D. H.; Sheriff, L.; Teijeiro, A.; Prinz, M.; Bogeska, R.; An-stee, N.; Bongers, M. N.; Notohamiprodjo, M.; Geisler, T.; Withers, D. J.; Ware, J.; Mann, D. A.; Augustin, H. G.; Vegiopoulos, A.; Milsom, M. D.; Rose, A. J.; Lalor, P. F.; Llovet, J. M.; Pinyol, R.; Tacke, F.; Rad, R.; Matter, M.; Djouder, N.; Kubes, P.; Knolle, P. A.; Unger, K.; Zender, L.; Nieswandt, B.; Gawaz, M.; Weber, A.; Heikenwalder, M. Platelet gpibα is a mediator and potential interventional target for nash and subsequent liver cancer. Nat. Med. 2019, 25, 641-655). Briefly, PRP was isolated from peripheral human blood collected in citrate-phosphate-dextrose solution with adenine (CPDA) and diluted with phosphate-buffered saline (PBS) (Sigma Aldrich Co., Ltd., St. Luis, Missouri, USA) supplemented with CaCl2 and MgCl2. PRP (106 platelets /sample) was preincubated with the respective compound (100 µM) for 15 min. Samples were treated with 1 µg/ml CRP-XL (CambCol Laboratories, Cambridge, UK) for 30 min at room temperature in the presence of the respective fluorochrome-conjugated antibody against P-Selectin (CD62P-FITC; Beckman Coulter, Brea, CA, USA). Subsequently, samples were fixed in 0.5% paraformaldehyde and analyzed on a FACS-Calibur flow cytometer (FACS-Caliber flow cytometer, Becton-Dickinson, East Rutherford, NJ, USA). Mean fluorescence intensity (MFI) was used as a quantitative measurement of platelet surface expression.

The mark [5] stands for this setting: average of three independent experiments ± SEM.

Structures are written as SMILES. Several values for one entry are separate records, joined by “and”; a condition that tells them apart may be missing. Equal entries are not always repeated.

T1 sequence (P25106 whole entry): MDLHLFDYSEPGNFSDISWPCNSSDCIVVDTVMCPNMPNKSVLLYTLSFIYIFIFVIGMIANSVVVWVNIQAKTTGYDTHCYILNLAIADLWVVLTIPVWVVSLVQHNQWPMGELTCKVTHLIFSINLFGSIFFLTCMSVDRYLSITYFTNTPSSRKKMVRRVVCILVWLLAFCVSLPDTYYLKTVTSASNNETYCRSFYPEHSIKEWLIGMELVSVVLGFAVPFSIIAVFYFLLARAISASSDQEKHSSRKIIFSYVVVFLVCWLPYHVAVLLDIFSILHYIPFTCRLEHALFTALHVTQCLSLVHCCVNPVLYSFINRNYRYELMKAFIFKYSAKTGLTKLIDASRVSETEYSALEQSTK
T1 sequence (P49407 whole entry partner): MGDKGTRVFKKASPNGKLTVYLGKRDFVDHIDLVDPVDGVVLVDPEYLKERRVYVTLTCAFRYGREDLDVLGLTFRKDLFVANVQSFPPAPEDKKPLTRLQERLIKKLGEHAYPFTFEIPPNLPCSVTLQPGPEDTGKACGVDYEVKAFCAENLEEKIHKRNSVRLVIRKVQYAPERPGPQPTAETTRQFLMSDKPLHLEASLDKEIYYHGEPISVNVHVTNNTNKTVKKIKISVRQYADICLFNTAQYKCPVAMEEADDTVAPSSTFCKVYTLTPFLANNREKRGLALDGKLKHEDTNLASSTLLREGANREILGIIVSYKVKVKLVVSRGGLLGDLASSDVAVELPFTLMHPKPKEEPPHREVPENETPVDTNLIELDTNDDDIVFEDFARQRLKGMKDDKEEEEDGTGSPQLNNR

On to `CCN(CCCNC(=O)c1ccc(-c2ccccc2)s1)Cc1ccccc1` [Compound 23, N-(3-(benzyl(ethyl)amino)propyl)-5-phenylthiophene-2-carboxamide], for which, in the data set with HEK293 cells, the “cell toxicity / tolerability (in words)” value was “tolerated well”. Moreover, the “platelet aggregation (in words)” value in the data set on platelets [1] is listed as “highest potency for platelet aggregation inhibition”. The EC50 on human ACKR3 was 0.111 µM. Moreover, the values for the solubility in “Kinetic solubility assay” and in “Kinetic solubility assay” (setting [5]) were 30 µg/mL and 75 ± 1 µM, respectively.

For `CCCCN(CCCNC(=O)c1ccc(-c2ccccc2)s1)Cc1ccccc1` [Compound 27, N-(3-(benzyl(butyl)amino)propyl)-5-phenylthiophene-2-carboxamide], the “cell toxicity / tolerability (in words)” value with HEK293 cells is reported as “tolerated well”. In addition, the compound remained entry in data set [2] was “around 24%”; in data set [3] (60 min), “Around 69%”. Moreover, the “metabolic stability (in words)” value in data set [3] (over the course of 60 min) is recorded as “stable”. In the data set with platelets [4], the P-Selectin expression reduction is 77% and 77±6%. The solubility was 10 µg/mL in “Kinetic solubility assay” and 28 ± 4 µM in the data set “Kinetic solubility assay” (setting [5]).

The values are drawn from patent EP4620949A1, “ACKR3 MODULATORS FOR CARDIOVASCULAR OR ANTIPLATELET THERAPY” (Eberhard Karls Universität Tübingen (Medizinische Fakultät), priority 2024, dated 2025).
